According to patent US12655462B2, “PLK1 target phosphorylation status and treatment of cancer with PLK1 inhibitors” (Cardiff Oncology, Inc., priority 2018, dated 2026):
Like-named read-outs stand apart in the source and are kept apart here.

Key:
[1] = molecular target: T1, PLK1 phosphorylation of TCTP in MV4-11 and HL-60 (Homo sapiens, UniProt P53350); experiment: pTCTP in AML cell lines MV4-11 and HL-60, western blot (FIG. 2C); assay type: cell-based; conditions: MV4-11 and HL-60, 15 minutes; onvansertib 0.1 or 0.5 μM, cytarabine 10 or 100 nM, decitabine 0.2 or 1 μM
T1 construct: endogenous in cells; host or cells: MV4-11 and HL-60 AML cell lines
T1 sequence (P53350 whole entry): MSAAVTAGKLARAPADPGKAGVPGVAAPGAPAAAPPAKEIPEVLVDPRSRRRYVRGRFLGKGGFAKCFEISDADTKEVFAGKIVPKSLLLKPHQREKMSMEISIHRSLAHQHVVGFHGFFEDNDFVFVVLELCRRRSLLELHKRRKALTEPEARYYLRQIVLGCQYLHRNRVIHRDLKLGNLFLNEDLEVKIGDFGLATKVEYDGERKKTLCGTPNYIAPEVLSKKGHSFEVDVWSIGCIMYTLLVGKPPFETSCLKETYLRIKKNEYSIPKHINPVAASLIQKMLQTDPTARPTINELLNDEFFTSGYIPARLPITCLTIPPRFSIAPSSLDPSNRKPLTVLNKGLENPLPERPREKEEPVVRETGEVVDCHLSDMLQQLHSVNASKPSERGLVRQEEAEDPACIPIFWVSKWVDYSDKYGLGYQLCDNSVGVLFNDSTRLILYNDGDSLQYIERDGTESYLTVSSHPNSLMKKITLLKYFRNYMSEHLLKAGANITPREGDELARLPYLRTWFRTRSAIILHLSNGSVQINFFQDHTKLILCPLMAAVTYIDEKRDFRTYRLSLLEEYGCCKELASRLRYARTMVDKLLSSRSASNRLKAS
Procedure: (§1) Protein extracts were prepared from PBMC and cell lines using M-PER buffer (ThermoFisher) with 150 mM NaCl and 1× protease and phosphatase inhibitors cocktails (ThermoFisher). Protein concentration was measured with the Pierce BCA protein assay kit (ThermoFisher).
Western blots were performed as Simple Western™ assays using the Wes system (ProteinSimple), a combination of capillary electrophoresis and immunodetection techniques, following the manufacturer's protocols. Briefly, extracts with equal protein concentration were mixed with 0.1× sample buffer and 5× fluorescent master mix. Denatured protein samples, biotinylated ladder (ProteinSimple), primary antibodies, horseradish peroxidase (HRP)-conjugated secondary antibody (ProteinSimple), chemiluminescence substrate and wash buffer were dispensed into respective wells of the assay plate and placed in Wes equipment. Primary antibodies were purchased from Cell Signaling Technology: phospho-TCTP-Ser46 (#5251) and TCTP (#5128), and used at a concentration of 1:50. Quantitative analysis was performed using Compass software (ProteinSimple). […]
AML cell lines MV4-11 and HL-60 were treated for 15 minutes with onvansertib (PCM-075) (0.1 or 0.5 μM), cytarabine (10 or 100 nM) or decitabine (0.2 or 1 μM). Proteins were then extracted from the cells and assessed for pTCTP.

[2] = molecular target: T2, PLK1 phosphorylation of TCTP (Homo sapiens, UniProt P53350); experiment: Inhibition of pTCTP in vitro, western blot (FIG. 2B)
T2 sequence (P53350 whole entry): as above

[3] = test system: acute myeloid leukemia (AML); experiment: Clinical response of AML patients, trial NCT03303339 (leukemic cells in blood and bone marrow); assay type: in vivo, human
Excerpt: Patient data provided herein is from patients in clinical trial NCT03303339, Onvansertib in Combination With Either Low-dose Cytarabine (LDAC) or Decitabine in Adult Patients With Acute Myeloid Leukemia (AML) (ClinicalTrials.gov).
Responders were defined as patients showing a decrease in circulating and bone marrow blasts during treatment.

[4] = cited from earlier work; for half-life: oral administration
[5] = test system: cell lines, both from solid as well as hematologic tumors; conditions: large number of cell lines, solid and hematologic tumors; cited from earlier work
[6] = test system: cancer cell lines; conditions: cited from earlier work
[7] = molecular target: PLK1 (Homo sapiens, UniProt P53350); conditions: versus previous PLK inhibitors; cited from earlier work
Chain of PLK1 (P53350 whole entry): as above

[8] = test system: xenograft tumor; conditions: mice, oral administration, well tolerated doses; cited from earlier work
[9] = test system: HT29 human colon adenocarcinoma xenografts; conditions: combination with irinotecan, compared to each agent alone; cited from earlier work
[10] = test system: disseminated model of AML; conditions: combination therapy with cytarabine; cited from earlier work
[11] = test system: advanced/metastatic solid tumors; conditions: adult subjects; cited from earlier work
[12] = molecular target: T2, PLK1 phosphorylation of TCTP; experiment: pTCTP (Ser46) in patient blood PBMC before and 3 hours after onvansertib; assay type: in vivo; parameters: Protein extracts were prepared from PBMC and cell lines using M-PER buffer; from tissue; host or cells: peripheral blood mononuclear cells from AML patients' blood; conditions: for decrease in pTCTP in patient blood: three patients, as early as three hours
Procedure: Determination of phosphorylation of serine 46 of TCTP in blood was as follows. Peripheral blood mononuclear cells (PBMC) were isolated from a Cellsave blood tube (Menarini Silicon Biosystems) using Leucosep centrifuge tubes (VWR) and Histopaque-1077 (Sigma) according to the manufacturer's recommendations.
as §1
Western blots were performed as Simple Western™ assays using the Wes system (ProteinSimple), a combination of capillary electrophoresis and immunodetection techniques, following the manufacturer's protocols. Briefly, extracts with equal protein concentration were mixed with 0.1× sample buffer and 5× fluorescent master mix. Denatured protein samples, biotinylated ladder (ProteinSimple), primary antibodies, horseradish peroxidase (HRP)-conjugated secondary antibody (ProteinSimple), chemiluminescence substrate and wash buffer were dispensed into respective wells of the assay plate and placed in Wes equipment. Primary antibodies were purchased from Cell Signaling Technology: phospho-TCTP-Ser46 (#5251) and TCTP (#5128), and used at a concentration of 1:50. Quantitative analysis was performed using Compass software (ProteinSimple). Signal intensity (area) of pTCTP was normalized to the peak area of TCTP and reported as % pTCTP.
PLK1 inhibition in patients was assessed in blood taken 3-hours following administration of onvansertib at peak concentration (Cmax).
Blood samples were collected before, and 3 hours after, onvansertib treatment from patients enrolled in the trial described in Example 1. The onvansertib treatments were 12, 18, 27, or 40 mg/m^2. pTCTP and TCTP were assessed by Western-Blot and % pTCTP (pTCTP/TCTP) was quantified.
In these studies, biomarker positivity was defined as ≥50% decrease in % pTCTP from T=0 to T=3h.

[13] = combination with LDAC or decitabine

Nc1ccn([C@@H]2O[C@H](CO)[C@@H](O)[C@@H]2O)c(=O)n1 [cytarabine]
inhibition of pTCTP [1]: but not cytarabine or decitabine, inhibited pTCTP

CN1CCN(c2ccc(OC(F)(F)F)c(Nc3ncc4c(n3)-c3c(c(C(N)=O)nn3CCO)CC4)c2)CC1 [onvansertib, 1-(2-hydroxyethyl)-8-{[5-(4-methylpiperazin-1-yl)-2-(trifluoromethoxy)phenyl]amino}-4,5-dihydro-1H-pyrazolo[4,3-h] quinazoline-3-carboxamide]
inhibition of pTCTP in vitro [2]: inhibits pTCTP in vitro, in a dose-dependent manner
inhibition of pTCTP [1]: inhibited pTCTP
biomarker positive patients with a decrease in BM blasts≥50% [3, 13]: six out of the nine
patients with complete response [CR] or CR with incomplete hematological recovery [CRi] [3, 13]: Four
patients exhibiting a response (decrease in leukemic cells in blood and bone marrow) ([3]; in combination with low-dose cytarabine (LDAC) or decitabine): Three of 6
leukemic cells in bone marrow, decrease ([3]; patient 07-009, combination with decitabine): 96% to 55%
leukemic cells in bone marrow, decrease ([3]; patient 07-011, combination with decitabine): 55% to 15%
half-life [4]: about 24 hours
half-life ([4]; listed as Onvansertib): ~24 h
oral bioavailability ([4]; rodent and nonrodent species): good oral bioavailability
potency in proliferation assays [5]: low nanomolar activity
mitotic cell-cycle arrest followed by apoptosis [6]: potently causes a mitotic cell-cycle arrest followed by apoptosis
selectivity for PLK1 [7]: high selectivity for PLK1 only
xenograft tumor growth [8]: inhibits xenograft tumor growth
tumor regression [9]: enhanced tumor regression
survival of animals [10]: prolonged survival
evaluable patients with stable disease [11]: 5 of 16
recommended phase 2 dose [11]: 24 mg/m^2
decrease of pTCTP in cells of non-responders ([12]; 5 non-responders, higher dose 18 mg/m^2): did not show a decrease of pTCTP
decrease in pTCTP ([12]; the one biomarker negative patient with objective response): 40%
decrease in pTCTP in patient blood ([12]; onvansertib and LDAC): only the responder showed a decrease in pTCTP
decrease in pTCTP in patient blood ([12]; onvansertib and decitabine): only the two responders showed a decrease in pTCTP
